# Biological target: EGFR (human) (UniProt P00533)
# Details: a431
# Chain of EGFR (human) (P00533 whole entry, looked up): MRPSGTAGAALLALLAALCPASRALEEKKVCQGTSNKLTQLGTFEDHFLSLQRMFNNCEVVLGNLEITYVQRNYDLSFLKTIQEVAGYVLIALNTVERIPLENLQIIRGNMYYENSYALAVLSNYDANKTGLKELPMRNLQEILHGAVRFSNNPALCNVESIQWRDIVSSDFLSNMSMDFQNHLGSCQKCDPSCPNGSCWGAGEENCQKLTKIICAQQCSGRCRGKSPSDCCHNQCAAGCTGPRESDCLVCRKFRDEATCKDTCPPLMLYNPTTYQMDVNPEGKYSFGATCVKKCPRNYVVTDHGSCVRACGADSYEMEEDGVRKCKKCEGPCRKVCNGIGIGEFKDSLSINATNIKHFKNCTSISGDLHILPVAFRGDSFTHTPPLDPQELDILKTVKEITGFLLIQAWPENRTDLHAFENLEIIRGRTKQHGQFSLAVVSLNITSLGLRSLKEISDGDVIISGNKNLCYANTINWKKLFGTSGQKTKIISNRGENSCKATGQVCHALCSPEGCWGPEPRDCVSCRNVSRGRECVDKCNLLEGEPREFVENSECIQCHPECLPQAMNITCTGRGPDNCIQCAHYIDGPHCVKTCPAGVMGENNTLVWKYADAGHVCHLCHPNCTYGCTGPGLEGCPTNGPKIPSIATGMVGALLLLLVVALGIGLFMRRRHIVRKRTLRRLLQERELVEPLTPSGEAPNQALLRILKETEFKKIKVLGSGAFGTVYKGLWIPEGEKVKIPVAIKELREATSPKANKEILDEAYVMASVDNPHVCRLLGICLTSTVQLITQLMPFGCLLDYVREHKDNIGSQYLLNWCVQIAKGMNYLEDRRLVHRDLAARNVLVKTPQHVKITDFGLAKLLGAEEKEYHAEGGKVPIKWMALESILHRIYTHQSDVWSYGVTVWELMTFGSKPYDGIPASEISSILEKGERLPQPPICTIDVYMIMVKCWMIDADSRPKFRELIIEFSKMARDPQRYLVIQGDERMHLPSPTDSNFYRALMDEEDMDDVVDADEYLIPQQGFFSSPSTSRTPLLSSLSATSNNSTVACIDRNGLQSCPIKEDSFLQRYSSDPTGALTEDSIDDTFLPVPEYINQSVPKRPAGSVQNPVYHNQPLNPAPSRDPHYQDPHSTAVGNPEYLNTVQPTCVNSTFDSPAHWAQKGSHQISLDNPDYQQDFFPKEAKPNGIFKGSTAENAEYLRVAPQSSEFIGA
row,SMILES,IC50
1,O=C(Cc1ccc2c(c1)sc1ncnc(Nc3ccc(OCc4cccc(F)c4)c(Cl)c3)c12)NCCOCCO,≤ 5 µM
2,CN1CCN(C(=O)/C=C/c2ccc3c(c2)sc2ncnc(Nc4ccc(OCc5cccc(F)c5)c(Cl)c4)c23)CC1,≤ 5 µM
3,OCCNCCc1ccc2c(c1)sc1ncnc(Nc3ccc(OCc4cccc(F)c4)c(Cl)c3)c12,≤ 5 µM
4,CN(C)[C@@H]1CCN(C(=O)Cc2ccc3c(c2)sc2ncnc(Nc4ccc(OCc5cscn5)c(Cl)c4)c23)C1,≤ 5 µM
5,OC[C@H](O)COc1ccc2c(c1)sc1ncnc(Nc3ccc(OCc4ccccn4)c(Cl)c3)c12,≤ 5 µM
6,COCCNCCc1ccc2c(c1)sc1ncnc(Nc3ccc(OCc4ccccn4)c(Cl)c3)c12,≤ 5 µM
7,OC[C@@H](O)c1ccc2c(c1)sc1ncnc(Nc3ccc(OCc4cccc(F)c4)c(Cl)c3)c12,≤ 5 µM
8,OCCc1ccc2c(c1)sc1ncnc(Nc3ccc(OCc4ccccn4)c(Cl)c3)c12,≤ 5 µM
9,COCCN1CCN(CCc2ccc3c(c2)sc2ncnc(Nc4ccc(OCc5cccc(F)c5)c(Cl)c4)c23)CC1,≤ 5 µM
10,CN(C)CCNC(=O)Cc1ccc2c(c1)sc1ncnc(Nc3ccc4c(cnn4Cc4cccc(F)c4)c3)c12,≤ 5 µM
11,CN1CCN(C(=O)Cc2ccc3c(c2)sc2ncnc(Nc4ccc(OCc5cscn5)c(Cl)c4)c23)CC1,≤ 5 µM
12,COC[C@@H]1CCCN1C(=O)Cc1ccc2c(c1)sc1ncnc(Nc3ccc(OCc4ccccn4)c(Cl)c3)c12,≤ 5 µM
13,CN(C)[C@H]1CCN(C(=O)Cc2ccc3c(c2)sc2ncnc(Nc4ccc5c(cnn5Cc5cccc(F)c5)c4)c23)C1,≤ 5 µM
14,CN1CCN(CCc2ccc3c(c2)sc2ncnc(Nc4ccc(OCc5ccccn5)c(Cl)c4)c23)CC1,≤ 5 µM
15,OC[C@H](O)COc1ccc2c(c1)sc1ncnc(Nc3ccc(OCc4cccc(F)c4)c(Cl)c3)c12,≤ 5 µM
16,CO[C@H]1CCN(CCc2ccc3c(c2)sc2ncnc(Nc4ccc(OCc5cccc(F)c5)c(Cl)c4)c23)C1,≤ 5 µM
17,OC[C@@H](O)c1ccc2c(c1)sc1ncnc(Nc3ccc4c(cnn4Cc4cccc(F)c4)c3)c12,≤ 5 µM
18,Fc1cccc(COc2ccc(Nc3ncnc4sc5cc(OCCN6CCOCC6)ccc5c34)cc2Cl)c1,≤ 5 µM
19,CS(=O)(=O)CCNC(=O)Cc1ccc2c(c1)sc1ncnc(Nc3ccc4c(cnn4Cc4cccc(F)c4)c3)c12,≤ 5 µM
20,CCNCCc1ccc2c(c1)sc1ncnc(Nc3ccc(OCc4ccccn4)c(Cl)c3)c12,≤ 5 µM
21,CN(C)CCNC(=O)CCc1ccc2c(c1)sc1ncnc(Nc3ccc(OCc4cccc(F)c4)c(Cl)c3)c12,≤ 5 µM
22,OCCN(CCO)CCc1ccc2c(c1)sc1ncnc(Nc3ccc(OCc4cccc(F)c4)c(Cl)c3)c12,≤ 5 µM
23,CS(=O)(=O)CCNCCc1ccc2c(c1)sc1ncnc(Nc3ccc(OCc4ccccn4)c(Cl)c3)c12,≤ 5 µM

row,SMILES,IC50
1,CN1CCN(C(=O)Cc2ccc3c(c2)sc2ncnc(Nc4ccc5c(cnn5Cc5cccc(F)c5)c4)c23)CC1,≤ 5 µM
2,O=C(/C=C/c1ccc2c(c1)sc1ncnc(Nc3ccc(OCc4cccc(F)c4)c(Cl)c3)c12)N1CCOCC1,≤ 5 µM
3,Fc1cccc(COc2ccc(Nc3ncnc4sc5cc(CCN6CCNCC6)ccc5c34)cc2Cl)c1,≤ 5 µM
4,CN1CCN(C(=O)Cc2ccc3c(c2)sc2ncnc(Nc4ccc(OCc5cccc(F)c5)c(Cl)c4)c23)CC1,≤ 5 µM
5,CS(=O)(=O)CCNC(=O)CCc1ccc2c(c1)sc1ncnc(Nc3ccc(OCc4cccc(F)c4)c(Cl)c3)c12,≤ 5 µM
6,CCN1CCN(C(=O)/C=C/c2ccc3c(c2)sc2ncnc(Nc4ccc(OCc5cccc(F)c5)c(Cl)c4)c23)CC1,≤ 5 µM
7,COC[C@H]1CCCN1CCc1ccc2c(c1)sc1ncnc(Nc3ccc(OCc4cccc(F)c4)c(Cl)c3)c12,≤ 5 µM
8,OC[C@@H](O)[C@H](O)c1ccc2c(c1)sc1ncnc(Nc3ccc(OCc4cccc(F)c4)c(Cl)c3)c12,≤ 5 µM
9,CN(C)[C@H]1CCN(C(=O)Cc2ccc3c(c2)sc2ncnc(Nc4ccc(OCc5cscn5)c(Cl)c4)c23)C1,≤ 5 µM
10,Fc1cccc(Cn2ncc3cc(Nc4ncnc5sc6cc(CCN7CCOCC7)ccc6c45)ccc32)c1,≤ 5 µM
11,CN(C)[C@H]1CCN(C(=O)CCc2ccc3c(c2)sc2ncnc(Nc4ccc(OCc5cccc(F)c5)c(Cl)c4)c23)C1,≤ 5 µM
12,O=C(Cc1ccc2c(c1)sc1ncnc(Nc3ccc(OCc4ccccn4)c(Cl)c3)c12)N1CCC[C@@H]1CO,≤ 5 µM
13,NS(=O)(=O)OCCc1ccc2c(c1)sc1ncnc(Nc3ccc(OCc4ccccn4)c(Cl)c3)c12,≤ 5 µM
14,O=C(Cc1ccc2c(c1)sc1ncnc(Nc3ccc4c(cnn4Cc4cccc(F)c4)c3)c12)NC1CN2CCC1CC2 (centres undefined),≤ 5 µM
15,OC[C@H](O)c1ccc2c(c1)sc1ncnc(Nc3ccc(OCc4cccc(F)c4)c(Cl)c3)c12,≤ 5 µM
16,OC[C@@H](O)COc1ccc2c(c1)sc1ncnc(Nc3ccc(OCc4cccc(F)c4)c(Cl)c3)c12,≤ 5 µM
17,CN1CCN(CCc2ccc3c(c2)sc2ncnc(Nc4ccc(OCc5cccc(F)c5)c(Cl)c4)c23)CC1,≤ 5 µM
18,O=C(Cc1ccc2c(c1)sc1ncnc(Nc3ccc(OCc4cccc(F)c4)c(Cl)c3)c12)N1CCNCC1,≤ 5 µM
19,OCC(O)C(O)c1ccc2c(c1)sc1ncnc(Nc3ccc(OCc4cccc(F)c4)c(Cl)c3)c12 (centres undefined),≤ 5 µM
20,OCCc1ccc2c(c1)sc1ncnc(Nc3ccc4c(cnn4Cc4cccc(F)c4)c3)c12,≤ 5 µM
21,CN(C)[C@H]1CCN(C(=O)/C=C/c2ccc3c(c2)sc2ncnc(Nc4ccc(OCc5cccc(F)c5)c(Cl)c4)c23)C1,≤ 5 µM
22,OCCc1ccc2c(c1)sc1ncnc(Nc3ccc(OCc4cccc(F)c4)c(Cl)c3)c12,≤ 5 µM
23,Fc1cccc(Cn2ncc3cc(Nc4ncnc5sc6cc(N7CCNCC7)ccc6c45)ccc32)c1,≤ 5 µM

row,SMILES,IC50
1,OCC(O)c1ccc2c(c1)sc1ncnc(Nc3ccc(OCc4cccc(F)c4)c(Cl)c3)c12 (centres undefined),≤ 5 µM
2,Fc1cccc(COc2ccc(Nc3ncnc4sc5cc(OCCCN6CCOCC6)ccc5c34)cc2Cl)c1,≤ 5 µM
3,Fc1cccc(COc2ccc(Nc3ncnc4sc5cc(CCN6CCCCC6)ccc5c34)cc2Cl)c1,≤ 5 µM
4,COC(=O)/C=C/c1ccc2c(c1)sc1ncnc(Nc3ccc(OCc4cccc(F)c4)c(Cl)c3)c12,≤ 5 µM
5,O=C(Cc1ccc2c(c1)sc1ncnc(Nc3ccc(OCc4cccc(F)c4)c(Cl)c3)c12)N1CCOCC1,≤ 5 µM
6,O=C(Cc1ccc2c(c1)sc1ncnc(Nc3ccc(OCc4cccc(F)c4)c(Cl)c3)c12)NCCN1CCOCC1,≤ 5 µM
7,COCCNCCc1ccc2c(c1)sc1ncnc(Nc3ccc(OCc4cccc(F)c4)c(Cl)c3)c12,≤ 5 µM
8,Fc1cccc(COc2ccc(Nc3ncnc4sc5cc(OCCN6CCCC6)ccc5c34)cc2Cl)c1,≤ 5 µM
9,OCC(O)c1ccc2c(c1)sc1ncnc(Nc3ccc4c(cnn4Cc4cccc(F)c4)c3)c12 (centres undefined),≤ 5 µM
10,Fc1cccc(COc2ccc(Nc3ncnc4sc5cc(CCBr)ccc5c34)cc2Cl)c1,≤ 5 µM
11,OC[C@H](O)c1ccc2c(c1)sc1ncnc(Nc3ccc4c(cnn4Cc4cccc(F)c4)c3)c12,≤ 5 µM
12,CN1CCN(c2ccc3c(c2)sc2ncnc(Nc4ccc(OCc5ccccn5)c(Cl)c4)c23)CC1,≤ 5 µM
13,Fc1cccc(COc2ccc(Nc3ncnc4sc5cc(CCN6CCCC6)ccc5c34)cc2Cl)c1,≤ 5 µM
14,OCC(O)c1ccc2c(c1)sc1ncnc(Nc3ccc(OCc4ccccn4)c(Cl)c3)c12 (centres undefined),≤ 5 µM
15,OCCc1ccc2c(c1)sc1ncnc(Nc3ccc4c(cnn4Cc4ccccn4)c3)c12,≤ 5 µM
16,CN(C)[C@H]1CCN(CCc2ccc3c(c2)sc2ncnc(Nc4ccc(OCc5cccc(F)c5)c(Cl)c4)c23)C1,≤ 5 µM
17,COCCN(CCOC)CCc1ccc2c(c1)sc1ncnc(Nc3ccc(OCc4cccc(F)c4)c(Cl)c3)c12,≤ 5 µM
18,OC[C@H](O)[C@@H](O)c1ccc2c(c1)sc1ncnc(Nc3ccc(OCc4cccc(F)c4)c(Cl)c3)c12,≤ 5 µM
19,OCC(CO)c1ccc2c(c1)sc1ncnc(Nc3ccc(OCc4cccc(F)c4)c(Cl)c3)c12,≤ 5 µM
20,CN1CCN(CCc2ccc3c(c2)sc2ncnc(Nc4ccc5c(cnn5Cc5cccc(F)c5)c4)c23)CC1,≤ 5 µM
21,Fc1cccc(COc2ccc(Nc3ncnc4sc5cc(CCN6CCSCC6)ccc5c34)cc2Cl)c1,≤ 5 µM
22,COCCN(CCOC)C(=O)Cc1ccc2c(c1)sc1ncnc(Nc3ccc(OCc4ccccn4)c(Cl)c3)c12,≤ 5 µM
23,Clc1cc(Nc2ncnc3sc4cc(CCBr)ccc4c23)ccc1OCc1ccccn1,≤ 5 µM

# From the Kinase Knowledgebase extract (Sharma et al. 2016)
